Laboratory results: patent US7438926B2, “Methods for inhibiting decrease in transdermal drug flux by inhibition of pathway closure” (Alza Corporation, priority 2000, dated 2008)
Counter-ions that a name gives are not always drawn. Like-named read-outs stand apart in the source and are kept apart here.

Columns and labels:
pathway closure [1] = details: PPS 0.16 mg/mL; 3% citric acid trisodium salt, 50% 1,2,6-hexanetriol or their mixture; 45 min vs 24 h
Protocol: In all guinea pigs, the skin of one flank was manually stretched bilaterally at the time of the application of the system. Microprotrusion array application was performed with an impact applicator. […] Following application, the stretching tension was released. The adhesive ring was left adhered on the skin and the microprotrusion array was removed. […] Additional groups of HGPs were treated in the same way, except that the formulation contained 3% citric acid trisodium salt or 50% 1,2,6-hexanetriol. At 1 and 24 h after application, 3 systems from each group were removed and residual drug washed from the skin.
(§1) Evaluation was performed at 45 min instead of 1 h. In addition, additional groups of animals received a formulation containing the mixture of 3% citric acid trisodium salt and 50% 1,2,6-hexanetriol.

pathway closure [2] = test: Inhibition of pathway closure by chemicals, methylene blue dye score after microprotrusion array pretreatment; format: in vivo, hairless guinea pigs; details: 24 h; for Effect on pathway closure (in words): methylene blue evaluation, Table II; for Score (methylene blue): scale 0 to 5, 0.5 or greater significant
Protocol: Inhibition of pathway collapse by chemical agents was studied following pretreatment of the skin with a microprotrusion array and application of a formulation containing the agent for 24 h. Quantitation was performed by evaluation of dye impregnation of the pathways.
Application of the microprotrusion array was performed with an impact applicator. […] Following application, the stretching tension was released. […] The guinea pig received a second system containing a different formulation on the opposite site. Twenty four hours after application, three systems from each group were removed and residual formulation washed from the skin. The skin was stained with a 1% methylene blue solution. Excess dye was thoroughly removed with 70% isopropyl alcohol pads and a picture of the site was taken. Pictures were scored on a 0 to 5 scale, 5 being the dye uptake obtained immediately following microprotrusion array application and 0 being the dye uptake obtained after 24 h contact with a control formulation. A score of 0.5 or greater was considered significant. Various osmotic agents, anticoagulants, antiinflammatory agents, gelling agents as well as gels of different pH and various additives were tested (Table II).

pathway closure [3] = test: Effect of pathway closure inhibitors on passive transdermal PPS flux (Example 3, 545 μm array); format: in vivo, hairless guinea pigs; details: for Effect on decrease in PPS flux between 1 and 24 h (in words): 3% citric acid trisodium salt or 50% 1,2,6-hexanetriol in PPS 0.1 mg/mL formulation; for Increase in total amount of PPS transported as compared to controls: 3% citric acid trisodium salt or 50% 1,2,6-hexanetriol
Protocol: In this experiment, PPS was delivered by passive diffusion through pathways in the skin created by a microprotrusion array. The concentration of PPS was below the concentration required for inhibition of pathway collapse (see Table II). Therefore, at the concentration used in this experiment, PPS behaved like a drug lacking any activity on pathway closure.
Microprotrusion array application was performed with an impact applicator. […] Following application, the stretching tension was released. […] Flux in the presence of 1,2,6-hexanetriol was decreased by less than 2 fold between 1 and 24 h. Total amount transported was increased about 4 and 7 folds in the presence of citric acid and 1,2,6-hexanetriol, respectively, as compared to controls as shown in FIG. 2.

pathway closure [4] = test: India ink staining of sites after microprotrusion array pretreatment; format: in vivo, hairless guinea pigs; details: sites exposed to the additive for 24 h
[5] = Passive intracutaneous delivery of plasmid DNA vaccine with microprotrusion array (skin biopsy, PCR); format: in vivo, hairless guinea pigs; details: for Increase in plasmid DNA delivered as compared to the control formulation: at one hour, 3% citric acid trisodium salt or 1% Tween 80 in formulation
Protocol: Feasibility studies were conducted in hairless guinea pigs (HGPs) to determine whether passive intracutaneous delivery of a plasmid DNA vaccine (pCMV-AYW-HBs-Mkan), which encodes for hepatitis B surface antigen [HBsAg]), could be achieved using Macroflux. […] Application of the microprotrusion array was performed with an impact applicator. The system applied comprised a foam double adhesive ring (diameter 2.5 cm, thickness 0.08 cm) with a 1 cm^2 reservoir in the middle.
One of two configurations of microprotrusion arrays were used. Each configuration has a total surface area of 2 cm^2 and an active total blade surface area of 1 cm^2.
A microprotrusion array of the selected type was adhered to the adhesive foam and covered the bottom of the reservoir (after application, the microprotrusion array is in contact with the skin). Following application, the stretching tension was released and the microprotrusion array was left in situ. […] At 1 hour after application, two systems from each group were removed and residual formulation washed from the skin. The amount of drug penetrated at that time was determined in a 6 mm diameter full thickness skin biopsy taken at the skin site. The biopsy was dissolved in a digestion buffer (sodium dodecyl sulfate/proteinase K) and relevant DNA content was evaluated by polymerase chain (PCR) reaction followed by electrophoresis of the PCR product. A positive control group was included which consisted of 10 μg plasmid DNA injected intradermally. Negative controls consisted of the plasmid DNA applied on the skin without the use of a microprotrusion array. […].

[6] = format: in vivo, hairless guinea pigs; details: passive, array pretreatment (545 micrometer, 72/cm^2), PPS 0.05 mg/mL, DECAD 12 mg/mL, Inulin 2.5 mg/mL
Source text: Decrease in drug flux has been studied with three model drugs presenting different charge characteristics: pentosan polysulfate (PPS), a highly negatively charged compound, DECAD, a synthetic model decapeptide bearing two positive charges at pH 5.5, and inulin, a neutral polysaccharide.
In this experiment, PPS, DECAD, and inulin were delivered by passive diffusion through pathways in the skin created by pretreatment with a microprotrusion array. Pretreatment involves placing a microprotrusion array onto the skin with sufficient force to create a plurality of microslits/microcuts through the stratum corneum of the skin. The microprotrusion array is then removed from the skin and then some form of agent delivery device or agent reservoir is placed over the pathways in order to effect agent delivery or sampling. Pretreatment was used instead of integrated system because pathway closure appears to occur more rapidly and more reproducibly following pretreatment than when the microprotrusions are left in the skin during drug delivery. The concentration of PPS was below the concentration required for anticoagulant effect. All drugs were dissolved in water and solutions were gelled with 2% hydroxyethylcellulose. […]. PPS and DECAD were radiolabeled with tritium. […] was radiolabeled with ^14C.
Microprotrusion array application was performed with an impact applicator. […]. […]

[7] = format: in vivo, hairless guinea pigs
[8] = parameters: species or system hairless guinea pigs; details: guinea pig, in vivo
Source text: […]. […] […].

[9] = parameters: species or system hairless guinea pigs; details: guinea pig, in vivo; remark: listed apart in the source
Protocol: Additional experiments were performed with PPS in order to test alternative modes of delivery. […]. By comparison, with the same microprotrusion array and the same PPS concentration, total dose from a transdermal microprotrusion array with integrated drug reservoir and a pretreatment with a microprotrusion array and subsequent application of a drug reservoir was 2.2±0.2 mg and 1.4±0.2 mg, respectively. […]

[10] = in vivo, po, cited from earlier work
pathway closure [11] = details: guinea pig, not told
Protocol: as §1
An additional experiment was performed with PPS. Conditions were identical to that described in Example 4. Gluconic acid sodium salt, glucuronic acid sodium salt and glucose were evaluated at 0.6 M concentration with or without 3% citric acid.

Compound: OCCCCC(O)CO (stereo not drawn) [1,2,6-Hexanetriol]
- Effect on decrease in PPS flux at 24 hours (in words) (pathway closure [1]): inhibited significantly the decrease in flux
- Effect on pathway closure (in words) (pathway closure [2]): most effective agents
- Score (methylene blue) (pathway closure [2]; additive concentration 11%): 2.0 ± 0.3
- Score (methylene blue) (pathway closure [2]; additive concentration 23%): 3.0 ± 0.5
- Score (methylene blue) (pathway closure [2]; additive concentration 50%): 3.8 ± 0.2
- Effect on decrease in PPS flux between 1 and 24 h (in words) (pathway closure [3]): inhibited this decrease in flux
- Increase in total amount of PPS transported as compared to controls (pathway closure [3]; PPS 0.1 mg/mL): ~7 folds
- Decrease in PPS flux between 1 and 24 h in the presence of additive (pathway closure [3]; PPS 0.1 mg/mL, formulation with 50% 1,2,6-hexanetriol): less than 2 fold

Compound: OCC(O)CO [Glycerin]
- Score (methylene blue) (pathway closure [2]; additive concentration 30%): 2.7 ± 0.2
- Score (methylene blue) (pathway closure [2]; additive concentration 50%): 3.0 ± 0.2
- Score (methylene blue) (pathway closure [2]; additive concentration 70%): 2.7 ± 0.3
- Pathways open for larger sized compounds (India ink staining) (pathway closure [4]): pathways were open for larger sized compounds

Compound: CCCCCCCC/C=C\CCCCCCCC(=O)OCCOCC(OCCO)C1OCC(OCCO)C1OCCO (stereo not drawn) [Tween 80]
- Increase in plasmid DNA delivered as compared to the control formulation [5]: no significant enhancement

Compound: O=C(O)CC(O)(CC(=O)O)C(=O)O [citric acid trisodium salt]
- Comparison between formulation groups ([5]; 1 hour): most efficient formulation
- Increase in plasmid DNA delivered as compared to the control formulation [5]: more than 10 fold

Compound: O=C(O)CC(O)(CC(=O)O)C(=O)O [citric acid]
- Effect on decrease in PPS flux at 24 hours (in words) (pathway closure [1]): inhibited significantly the decrease in flux
- Effect on pathway closure (in words) (pathway closure [2]): most effective agents in preventing pathway closure
- Pathways open for larger sized compounds (India ink staining) (pathway closure [4]): pathways were open for larger sized compounds
- Effect on decrease in PPS flux between 1 and 24 h (in words) (pathway closure [3]): inhibited this decrease in flux
- Increase in total amount of PPS transported as compared to controls (pathway closure [3]; PPS 0.1 mg/mL): about 4 folds

Compound: inulin
- Drug Flux ([6]; 1 h): 13.9 ± 1.6 μg/(cm^2h)
- Drug Flux ([6]; 24 h): 0.489 ± 0.123 μg/(cm^2h)
- percentage excreted in urine following iv injection ([7]; over two days following injection, previous studies): 94%

Compound: pentosan polysulfate [PPS]
- Score (methylene blue) (pathway closure [2]; additive concentration 0.01%): 0 ± 0
- Score (methylene blue) (pathway closure [2]; additive concentration 5%): 0.5 ± 0.0
- intact fraction of dose excreted in urine [8]: more than 85%
- total dose [9]: 2.2 ± 0.2 mg
- total dose delivered [9]: 1.9 ± 0.1 mg
- bioavailability ([10]; 300 mg): 1-3%
- fraction of dose absorbed found intact in urine [10]: less than 5%
- Change of PPS flux between 1 hour and 24 hours (in words) (pathway closure [11]): flux decreased dramatically
- percentage excreted in urine following iv injection ([7]; guinea pig, in vivo, iv): 32%
- Decrease in PPS flux between 1 hour and 24 hours (pathway closure [3]; PPS 0.1 mg/mL, 2% HEC, no anti-healing agent): about 12 fold
